# Patent US6302119A, “Low odor permanent waving compositions containing a disulfide” (priority 1999, dated 2001)
# Entries after “also recorded” stand apart in the source; their conditions may differ.
# Tests used:
# [1] = Odor evaluation by 3-4 panelists of activator, waving composition and hair tresses; conditions: for Odor rating of waving composition (with activator): GMT alone 3.6; for Odor of hair rating: GMT alone 2.8; for Odor rating of activator (GMT + additive): GMT alone 3.8; for odor effect: additive in GMT, concentration not specified
# Experimental: The disulfide or thiol additive was added in the concentration indicated in Tables 3 and 4, to 200 g of neat glyceryl monothioglycolate (GMr) in a 250 mL beaker.
# Odor evaluation was conducted by 3-4 panelists who rated the odors on a scale of 1-5 where 1=no malodor and 5=extreme malodor. […] To this solution was added two tresses of dark brown, virgin hair (1 inch wide, 6 inches long), that had been washed with a 10% solution of SLS and soaked in synthetic sweate^8 at 37° C. for 17 hr, then lightly rinsed. The beaker containing the GMT activator was covered with foil and was allowed to sit for 5 to 10 minutes prior to odor evaluation. The tresses were then allowed to process in the wave composition for 20 minutes at room temperature in a covered beaker. The tresses were rinsed with tap water, towel blotted, then added to 80 mL of Matrix Opticurl Rebonding Neutralizer and processed for 5 minutes. After rinsing, the damp hair was evaluated for odor.
# 8. Recipe for synthetic sweat: 10 g sodium chloride, 1 g potassium hydrogen phosphate, 0.25 g histidine, lactic acid to adjust pH to 3.2 and water to make 1 L.
# [2] = cited from earlier work; for waving performance: compared to TGA where stated; for odor: permanent wave
# [3] = in vivo; cited from earlier work
# [4] = thiol; cited from earlier work
# [5] = gas chromatography; waving compositions; cited from earlier work
# [6] = 0.005 wt % in GMT, scale 1-5, 1 = no malodor
# [7] = 0.005 wt % in GMT, scale 1-5, 1 = no malodor, damp hair after neutralizer
# [8] = 0.005 wt % in GMT, scale 1 = no malodor, 5 = extreme malodor, average of 3-4 panelists
# [9] = 0.01 wt % in GMT, scale 1-5, 1 = no malodor
# [10] = 0.1 wt % in GMT, scale 1-5, 1 = no malodor
smiles,measurement,setting,value
CC(C)CCCCCOC(=O)CSSCC(=O)OCCCCCC(C)C [di-i-octyldithiodiglycolate],odor reduction,[1]; 0.005%,"removed the sulfur odor from GMT without adding the petroleum odor of the disulfide; also recorded: better than those were from the i-octylthioglycolate; also recorded: the waving composition and the hair smell more neutral, and less chemical than the other solutions; also recorded: essentially no odor left on the hair"
same,"panelist preference vs GMT alone, formulation odor and post-perm hair odor","[1]; 0.005% in GMT, duplicate experiments",all panelists preferred the GMT containing 0.005% disulfide compared to GMT alone
same,Odor rating of waving composition (with activator),[1]; [6],2.1
same,Odor of hair rating,[1]; [7],1.1
same,Odor rating of activator (GMT + additive),[1]; [8],2.2
same,odor reduction / odor detected,[1]; 0.01%,comparable odor results; also recorded: petroleum-like sulfur smell of the disulfide itself
same,Odor of hair rating,[1]; [9],1.8
same,Odor rating of waving composition (with activator),[1]; [9],3.0
same,Odor rating of activator (GMT + additive),[1]; [9],2.5
same,Odor of hair rating,[1]; [10],2.8
same,Odor rating of waving composition (with activator),[1]; [10],2.3
same,Odor rating of activator (GMT + additive),[1]; [10],2.5
same,odor effect,[1],reduces the thiol odor associated with a GMT wave in all three categories evaluated
CC(S)C(=O)O (centres unmarked) [Thiolactic acid],waving performance,[2],less efficient than TGA
same,toxicology / mildness,[3],milder on the epidermis
NCCS [Cysteamine],pKa,[4],8.6
same,odor,[2],likened to burnt popcorn or corn chips
"CCCCCCCSSCCCCCCC [di-n-heptyldisulfide, di-n-heptyl disulfide]",Odor rating of waving composition (with activator),[1]; [6],5
same,Odor rating of activator (GMT + additive),[1]; [8],5
same,Odor rating of waving composition (with activator),[1]; [9],5
same,Odor rating of activator (GMT + additive),[1]; [9],5
same,odor effect,[1],increased malodor compared to non-disulfide containing formulations
same,odor effect,[1]; listed as diheptyldisulfide,produces an odor itself that is more disagreeable than the GMT odor alone
N[C@@H](CS)C(=O)O [cysteine],waving performance,[2],produces weaker curls than TGA
same,skin irritation,[3],is an irritant
O=C(O)CS [ammonium thioglycolate],hydrogen sulfide in headspace,[5],ppm levels
CCCCOC(=O)CSSCC(=O)OCCCC [di-n-butyldithiodiglycolate],Odor rating of waving composition (with activator),[1]; [6],2.0
same,Odor of hair rating,[1]; [7],3.5
same,Odor rating of activator (GMT + additive),[1]; [8],2.0
same,Odor of hair rating,[1]; [9],4
same,Odor rating of waving composition (with activator),[1]; [9],3.8
same,Odor rating of activator (GMT + additive),[1]; [9],2.8
same,odor effect,[1]; listed as Di-butyldithiodiglycolate,effectively lowers odor in the activator and in the waving composition
same,odor effect,[1]; listed as dibutyldithioglycolate,less of an odor reducing effect compared to di-i-octyldithiodiglycolate
same,post-perm odor on hair,[1]; vs original GMT odor,leave a sulfur malodor on the hair that is more disagreeable than the original GMT odor
O=C(O)CS [thioglycolic acid],waving performance,[2],good performance
same,odor,[2],unpleasant odor
same,toxicology / mildness,[3],good toxicology
"O=C(CS)OCC(O)CO (centres unmarked) [GMT, Glyceryl monothioglycolate]",pKa,[4],7.8
same,odor,[2],"more pronounced from GMT (glyceryl monothioglycolate) acid waves, than from ATG (ammonium thioglycolate) alkaline waves"
same,skin irritation,[3],causes skin irritation in some people
